Measurements from PubChem BioAssay (NCI).
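Dose response: 5 concentrations. Exposure: 48 h. Format: 96-well plates. Endpoint: linear interpolation; highest concentration if not reached. Definition used: TGI = concentration required for complete inhibition of growth.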

How the values were obtained:
Test in all cases: NCI tumour cell line growth inhibition, 48 h
A498 renal = system: A498 renal
A549 NSCLC = system: A549 NSCLC
DU-145 prostate = system: DU-145 prostate
HCT-116 colon = system: HCT-116 colon
HOP-92 NSCLC = system: HOP-92 NSCLC
HS 578T breast = system: HS 578T breast
MCF7 breast = system: MCF7 breast
MDA-MB-435 = system: MDA-MB-435
RXF 393 renal = system: RXF 393 renal
SF-295 CNS = system: SF-295 CNS
SK-MEL-28 melanoma = system: SK-MEL-28 melanoma
SW-620 colon = system: SW-620 colon
UACC-257 melanoma = system: UACC-257 melanoma
SF-539 CNS = system: SF-539 CNS

SMILES | TGI (A498 renal) [µM] | TGI (A549 NSCLC) [µM] | TGI (DU-145 prostate) [µM] | TGI (HCT-116 colon) [µM] | TGI (HOP-92 NSCLC) [µM] | TGI (HS 578T breast) [µM] | TGI (MCF7 breast) [µM] | TGI (MDA-MB-435) [µM] | TGI (RXF 393 renal) [µM] | TGI (SF-295 CNS) [µM] | TGI (SK-MEL-28 melanoma) [µM] | TGI (SW-620 colon) [µM] | TGI (UACC-257 melanoma) [µM] | TGI (SF-539 CNS) [µM]
CCC1c2[nH]c3ccccc3c2C[C@H]2C(=O)NC(Cc3ccccc3)C(=O)N12 (stereo not given in full) | > 100 | > 100 | > 100 | 57.1 | 72.8 | 47.9 | > 100 | 43.8 | 53.6 | 57.8 | > 100 | > 100 | 49.6 | –
CC1=NN(c2ccccc2Cl)C2(C1)SCC(=O)N2c1nc2ccccc2s1 (stereo not given) | > 100 | > 100 | > 100 | > 100 | > 100 | > 100 | > 100 | > 100 | > 100 | > 100 | > 100 | > 100 | > 100 | > 100
O=C(N/N=C1\CCc2ccccc21)N/N=C1\CCc2ccccc21 | > 100 | > 100 | > 100 | > 100 | – | > 100 | > 100 | > 100 | > 100 | > 100 | > 100 | > 100 | > 100 | > 100
CCC/C(Cl)=N/OC(=O)Nc1cccc(F)c1 | – | 41.6 | 31.6 | 18.6 | 3.18 | > 63.1 | 8.85 | 24.8 | 20.5 | 32.5 | 9.82 | 2.98 | 28 | –
O=Cc1cc(O)ccc1Br | > 100 | > 100 | > 100 | 47.8 | 75.7 | > 100 | > 100 | 9.77 | > 100 | 99.5 | > 100 | > 100 | > 91.1 | 60.5
O=C(O)c1ccccc1/C=C1\Cc2ccc3c(c2C1=O)CCCC3 | 89 | > 100 | > 100 | 80.4 | 47.6 | 81.2 | > 100 | > 100 | 76.3 | 99.5 | > 100 | > 100 | 68.4 | 81.6
Nc1nc(Cl)cc(NCC2(CO)CC(O)C2)n1 (stereo not given) | > 100 | > 100 | > 100 | > 100 | > 100 | > 100 | > 100 | > 100 | > 100 | > 100 | > 100 | > 100 | > 100 | > 100
COc1cc([C@@H]2c3cc4c(cc3[C@@H](N=Cc3ccc(C(=O)O[C@H]5C[C@H]6OC[C@@]6(OC(C)=O)[C@H]6[C@H](OC(=O)c7ccccc7)[C@]7(O)C[C@H](OC(=O)[C@H](OC(=O)c8ccc(C=N[C@@H]9c%10cc%11c(cc%10[C@@H](c%10cc(OC)c(O)c(OC)c%10)[C@H]%10C(=O)OC[C@@H]%109)OCO%11)cc8)[C@@H](NC(=O)c8ccccc8)c8ccccc8)C(C)=C([C@@H](OC(C)=O)C(=O)[C@]56C)C7(C)C)cc3)C3COC(=O)C32)OCO4)cc(C)c1O (stereo not given in full) | 29.2 | > 50 | > 50 | > 50 | > 50 | > 50 | 48.5 | 9.32 | > 50 | > 50 | > 50 | > 50 | > 50 | > 37.8
COc1cccc2c(=O)c3c(O)c4cc(N(C)C)ccc4c(OC(C)=O)c3oc12 | 60.8 | > 100 | 37.5 | 26.8 | 39.3 | 69.5 | 61.7 | 31.4 | 18.6 | > 100 | 22.3 | 22.4 | 32.2 | 40.4
CC1(c2nc3ccccc3[nH]2)CCC(CO)C(C)(C)O1 (stereo not given) | – | > 100 | > 100 | > 100 | > 100 | > 100 | > 100 | > 100 | > 100 | > 100 | > 100 | > 100 | > 100 | > 100
N#Cc1c(-c2ccccc2)cc(Nc2ccc(F)cc2)n2c1nc1ccccc12 | 12 | > 100 | > 100 | 6.06 | – | 4.68 | 5.97 | > 100 | > 31.4 | > 29.6 | > 100 | > 100 | 8.78 | > 22.7
COC(=O)c1c(OC(C)=O)ccc2c1c1c(n2Cc2ccccc2)C(=O)c2ccccc2C1=O | 43.6 | 83.9 | 36.5 | 34.2 | 39.8 | 48.3 | > 100 | 35.8 | 37.8 | 38.5 | 41.2 | – | 26.8 | 33.7
C=C1C(=O)OC2C3C(=C)[C@@H](OC(C)=O)CC3C(C)=CC(OC(=O)C(C)(O)C(C)OC(C)=O)[C@@H]12 (stereo not given in full) | 32.3 | 77.8 | 30.3 | 17.9 | – | 40.9 | 22.9 | 28.3 | 17.4 | > 100 | 27.2 | 10.7 | 23.2 | 31.9
O=C1c2cc([N+](=O)[O-])cnc2S(=O)(=O)N1c1ccc(Oc2ccccc2)cc1 | – | > 100 | > 100 | > 100 | > 100 | > 100 | > 100 | > 100 | > 100 | > 100 | > 100 | > 100 | – | –
CC(C)(C)OC(=O)N1CCC[C@H]1CSC[C@@H]1CCCN1C(=O)OC(C)(C)C | – | 87.3 | > 100 | 78.5 | 39.5 | 79.3 | 96.3 | 46.7 | 69 | > 100 | 60 | 96.8 | 90.8 | –
COc1ccc(-c2c(C(=O)Nc3ccccc3)c(-c3ccccc3)n(C3OC(CO)C(O)C(O)C3O)c(=S)c2C#N)cc1 (stereo not given) | > 100 | > 100 | > 100 | > 100 | > 100 | > 100 | > 100 | > 100 | > 100 | > 100 | > 100 | > 100 | > 100 | –
